Patent publication US20190216891A1, “METHOD FOR MODULATING MYELINATION” (Yeda Research and Development Co., Ltd., priority 2016, published 2019)
Entries after “also recorded” stand apart in the source; their conditions may differ.

Columns and labels:
Type in all cases: cell-based, mouse
[1] = system: nuclear translocation of ERK1/2; experiment: Nuclear localization of pERK in cultured OPCs (immunolabeling pERK, PLP, Dapi); settings: Gpr37−/− OPCs (DIV7)
Method: (§1) FIGS. 11A-B illustrate that EPE blocks the nuclear translocation of pERK in Gpr37 null oligodendrocytes. A. Cultured OPCs isolated from WT and Gpr37^−/− mice were grown for 3 days (DIV2-DIVS) in the presence or absence (control) of EPE, followed by immunolabeling with antibodies to pERK and PLP. The nuclei were labeled with Dapi. PLP and pERK immunoreactivity are shown in separate images along with the Dapi signal. Higher magnification of the nucleus is shown in the insets in each panel. […] Scale bar, 50 μm. […] Cultures were grown in the absence (DME), or presence of EPE, PLX4032, or DMSO as control for 6 days, and then fixed at DIV7 and labeled with antibodies to Olig2. The number of positive cells per field of view is shown in the graph. Bars represent mean±SEM (n=3 different cultures per each genotype; 10 fields of view were analyzed for each culture).
FIGS. 12A-D illustrate the involvement of cAMP in Gpr37 signaling in oligodendrocytes. A-B. Absence of Gpr37 results in increased levels of cAMP in mice brain (A) and cultured OPCs (B). Intracellular cAMP was extracted from P70 mice brains (*P<0.05, t-test; n=6 WT and n=7 KO mice), or from DIV5 cultured OPCs (*P<0.01, t-test; n=3 different OPC primary cultures of each genotype) and detected by ELISA. C. Adenylate cyclase inhibition prevents the nuclear translocation of pERK in Gpr37^−/− OPCs. Cultured wild type (WT) and Gpr37^−/− OPCs (DIV7) were left untreated (control) or treated with the adenylyl cyclase inhibitor SQ22536 (0.1 mM) for 2 hours in their growth medium. Cells were then fixed and labeled with Dapi to mark their nuclei, and with antibodies to PLP and pERK. […] Bars show mean±SEM (*P<0.01, t-test; n=3 different primary cultures for each genotype; 50 PLP-positive cells were counted per each culture).
FIGS. 13A-B illustrate that inhibition of Epac activity attenuates nuclear translocation of ERK1/2 in oligodendrocytes lacking GPR37. […] Bars show mean±SEM (*P<0.05, **P<0.01, t-test; n=3 different primary cultures for each genotype; 100 PLP-positive cells were counted per each culture). […]

[2] = system: wild type OPC cultures; experiment: Oligodendrocyte differentiation in wild type OPC cultures (PLP and O4 immunolabeling); settings: wild type OPC cultures grown four days with 1mM IBMX
Method: A. Immunolabeling of wild type OPC cultures grown for four days in the absence (Control) or presence of 1mM 3-isobutyl-1-methylxanthine (IBMX) using antibodies to PLP and O4. Dapi was used to label the nuclei. Scale bar, 50 μm. B. Percentage of PLP-positive oligodendrocytes among the total O4-positive cells (**P<0.01, t-test, n=3 cultures). Bars represent mean±SEM.
Immunofluorescence and Immunoblotting For immunohistochemistry, mice were anesthetized and perfused with 2% PFA/PBS. Brains and optic nerves were isolated and post fixed on ice for 15 min, followed by 30% sucrose/ PBS at 4° C. overnight. Tissues were embedded in OCT and sectioned. Sections were permeabilized in methanol at −20° C. for 5 min. Immunostaining of GPR37 was carried out using 2%PFA-perfused mouse brain sections that were permeabilized with cold acetone and blocked with 5% fish gelatin and 0.5% Triton-X100 at RT for 1 hr. For immunocytochemistry, cells were fixed with 4% PFA/ PBS for 15min at room temperature. For O4 staining, live cells were incubated with medium containing the O4 antibody at 37° C. for 45min before fixation. […] Western blot analysis was done using OPC cultures lysed in loading buffer and chemiluminescence was detected using the ChemiDoc MP System (Bio-Rad). […]

[3] = system: oligodendrocytes co-cultured with DRG neurons; experiment: OPC/DRG neuron co-cultures: PLP-positive oligodendrocytes associated with axonal Caspr clustering
Description: FIGS. 5A-H illustrate that Gpr37-dependent inhibition of oligodendrocyte differentiation is mediated by ERK phosphorylation and nuclear translocation. A. Immunolabeling of sagittal brain sections of P12 brain stems from wild type (WT) and KO (Gpr37^−/−) mice using antibodies to phosphorylated ERK (pERK) and Olig2. B. The number of pERK and Olig2 positive cells in Gpr37^−/− compared to WT brainstem (*P<0.05, n=5 images from two mice per genotype). C. Western blot analysis of purified OPC cultures at DIV7 (three cultures per each genotype are shown). Blots were incubated with antibodies to pERK or general ERK (ERK) as indicated. D. Relative value of pERK intensity normalized by general ERK (p=0.02, n=7 cultures each genotype). E. pERK is present in the nucleus of oligodendrocytes lacking Gpr37. […] (* p<0.05, n=3 different primary cultures for each genotype; 100 PLP-positive oligodendrocytes were counted per each culture). […] H. Quantitation of the results showing the fold change in the percent of PLP-positive cells that associate with axonal Caspr immunoreactivity in all samples compare to the non-treated wild type cultures. […]
Immunofluorescence and Immunoblotting For immunohistochemistry, mice were anesthetized and perfused with 2% PFA/PBS. […] Western blot analysis was done using OPC cultures lysed in loading buffer and chemiluminescence was detected using the ChemiDoc MP System (Bio-Rad). […]

[4] = system: oligodendrocytes co-cultured with DRG neurons; experiment: Number of Olig2 cells in oligodendrocyte/DRG neuron co-cultures; settings: both genotypes (WT and Gpr37−/−); 6 days treatment, fixed at DIV7
Method: as §1
Immunofluorescence and Immunoblotting For immunohistochemistry, mice were anesthetized and perfused with 2% PFA/PBS. Brains and optic nerves were isolated and post fixed on ice for 15 min, followed by 30% sucrose/ PBS at 4° C. overnight. Tissues were embedded in OCT and sectioned. Sections were permeabilized in methanol at −20° C. for 5 min. […] Western blot analysis was done using OPC cultures lysed in loading buffer and chemiluminescence was detected using the ChemiDoc MP System (Bio-Rad). […]

For CC(C)(C)c1cc(C(=O)/C(C#N)=N/Nc2cccc(Cl)c2)no1 [ESI-09], the “number of oligodendrocytes displaying nuclear localization of pERK (ERK1/2)” value (shortened to “number … (ERK1/2)”) ([1]; ESI-09 1 μM for 2 hours, vs DMSO) was “significant decrease; also recorded: reduced to equivalent level of wild type cells”.
In the case of CC(C)Cn1c(=O)n(C)c(=O)c2[nH]cnc21 [IBMX, 3-isobutyl-1-methylxanthine], the “oligodendrocyte differentiation (percentage of PLP-positive oligodendrocytes among total O4-positive cells)” value [2] was “enhances the differentiation; also recorded: enhances oligodendrocyte differentiation”.
CCCS(=O)(=O)Nc1ccc(F)c(C(=O)c2c[nH]c3ncc(-c4ccc(Cl)cc4)cc23)c1F [PLX4032] was tested, and the “number of PLP-positive oligodendrocytes associated with intense axonal clustering of Caspr” value ([3]; Gpr37−/− oligodendrocytes with wild type DRG neurons, 6 days in 10 μM EPE or 1 μM PLX4032, vs DMSO control) was “completely abolished; also recorded: significantly low number”, the “PLP-positive oligodendrocytes associated with axonal clustering of Caspr” value ([3]; wild type cultures, 6 days in 10 μM EPE or 1 μM PLX4032) was “no effect” and the “number of Olig2 cells (per field of view)” value [4] was “do not affect”.
In the case of Nc1ncnc2c1ncn2C1CCCO1 (stereo not shown) [SQ 22536], the “number … (ERK1/2)” value ([1]; SQ22536 0.1 mM for 2 hours) was “significant decrease” and the “number … (ERK1/2)” value ([1]; SQ22536 0.1 mM for 2 hours, listed as SQ22536) was “reduced to equivalent levels of wild type cells”.
